# Test results taken from paper PMC3858832 (Journal of Controlled Release, 2013).
# Where no end group is shown, it is not given here.
# Legend:
# [1] = Far-UV circular dichroism pH titration, midpoint of conformational transition (pKα); assay type: physicochemical; settings: far-UV CD intensity at 220 nm vs pH; peptide 30-50 μM in 5 mM Tris amine titrated with HClO4; 37 °C (310 K); average of two or more independent experiments
# Source text: Therefore, we first investigated whether reducing hydrogen-bonding opportunities at the Dap side chain amine would improve its tolerance by cells in culture. Alkylation of the Dap primary amine may however also impact on the pKa. […] Measurement of side chain pKa in a peptide undergoing a conformational transition associated with a change in aggregation state is hindered by the large amounts of material required for potentiometric analyses and the unfavourable line broadening observed in NMR for self-associated peptides. Instead, we have observed the cooperative, pH responsive, change of conformation of cationic amphipathic peptides in aqueous solution using far-UV CD (Supp. Fig. 1B/C). LADap (Sup. Fig. 1B) and LADap(Me2) (Supp. Fig. 1C) adopt an α-helix conformation when dissolved in neutral or slightly basic aqueous solution and, when titrated with acid, an increasingly disordered conformation is observed. The CD intensity at 220 nm is considered indicative of α-helix content and can be plotted as a function of pH (Supp. Fig. 1D/E). […] Although other interactions may be expected to contribute to the pKα when compared with the pKa, an increase of the same magnitude (~ 0.6 pH units) is seen in both the pKα for the Dap rich peptide and the pKa for the model compound following dimethylation (Supp. Fig. 1D/E; Table 1).
# Far-UV CD spectra were obtained for LAH4-L1, LAH6-L1 and the Dap and mono-methyl Dap containing analogues in aqueous Tris amine buffer at various pH (Supp. Fig. 4). […] For LAH4-L1, the pKα = 5.29 ± 0.25 and is in agreement with previous work while pKα = 4.45 ± 0.25 for LAH6-L1 is substantially higher than that reported recently for LAH6 peptides of greater hydrophobicity. The response of LADap4-L1 at 6.64 ± 0.08 is substantially more basic than the histidine-containing analogue. […]
# Circular dichroism experiments - Peptides were dissolved in 5 mM Tris amine without pH adjustment at a final concentration of between 30 and 50 μM. The samples were titrated down by adding 0.3% or 1% (v/v) HClO4 solution in micro-litre amounts. ClO4- is optically […]
# by HClO4 makes a significant improvement on spectral quality in the far-UV region. CD spectra were acquired on a Chirascan™ Spectrometer (Applied Photophysics, Leatherhead, UK) with samples maintained at 310 K. For pH titration experiments, far-UV CD spectra were obtained with the samples titrated down by adding 0.3% or 1% (v/v) HClO4 solution in micro-litre amounts. Spectra were recorded from 260 to 180 nm using a 0.5 mm path length and were processed using Chirascan software where a spectrum of the peptide free solution was subtracted and Savitzky-Gorlay smoothing with a convolution width of 5 points applied.
# Results for all CD assay measurements are expressed as an average of two or more independent repeated experiments. […]
# The pellets, containing lipid vesicles and associated peptides were transferred to Bruker 4 mm MAS rotors for NMR measurements. Lipid vesicles were also prepared in this way in the absence of peptide.
# Solid-state NMR - 2H quadrupole echo experiments for samples containing either POPC-d31 or POPS-d31 were performed at 61.46 MHz on a Bruker Avance 400 NMR
# [2] = system: GAPDH expression in A549 cells; assay: siRNA-mediated silencing of GAPDH expression in A549 cells (Western blot densitometry), with or without BALF; assay type: cell-based, human; settings: Western blot densitometry 72 h post transfection
# Method: (§3) The abilities of the peptides to successfully mediate specific silencing of GAPDH expression were then assessed in A549 cells (Fig. 2B), MCF-7 cells (Fig. 2C), HUVEC (Fig. 3A), THP-1 cells differentiated into macrophages (Fig. 4A) and undifferentiated THP-1 cells in suspension (Fig. 4B). Specific reductions in expression of GAPDH were assessed by densitometry of Western blots where the effects of administering siRNA targeting GAPDH was compared with that of non-targeting siRNA on the expression of GAPDH as endogenous reporter and β-actin as internal toxicity/specificity control (Figs. 2D, 3B, 4C).
# To test the suitability of the peptides for future pulmonary delivery applications in vivo the ability of the peptides to mediate silencing of GAPDH expression in A549 cells was repeated in the presence of bronchoalveolar lavage fluid (BALF) as a model for airway surface liquid (ASL) (Fig. 2E/F).
# (§4) siRNA transfection - A549, MCF-7 and THP-1 cells, were transfected with peptide/siRNA
# complexes containing 50 or 100 pmol GAPDH siRNA or negative control siRNA/well in 6-
# well plates, giving a final siRNA concentration of 50 or 100 nM. Cells were seeded at the
# following densities; A549 and MCF-7 - 1 × 10^5 cells per well, THP-1 in suspension – 5 ×
# 10^5 cells per well, differentiated THP-1 – 1 × 10^6 cells per well.
# [3] = system: A549 cells; assay: Luciferase reporter gene transfection of A549 cells; assay type: cell-based, human; settings: light units per well
# Source text: The ability of the peptides to mediate nucleic acid transfer was first assessed by monitoring the delivery of luciferase reporter gene to both A549 and MCF-7 human breast cancer cells (Fig. 2A). Lipofectamine 2000™ was used here as a benchmark and at an optimised volume to weight DNA ratio of 2:1 to minimise toxicity seen in the earlier experiments (Supp. Fig. 1H).
# (§5) Further Materials - Dulbecco’s modified eagle medium (DMEM), RPMI-1640 medium,
# (§6) Opti-MEM 1 reduced serum medium, antibiotic-antimycotic liquid, fetal bovine serum (FBS)
# (§7) and Lipofectamine 2000™ were purchased from Invitrogen (CA, USA). The luciferase assay
# (§8) system was purchased from Promega (Madison, WI, USA).
# Plasmid DNA (gWIZ™ Luciferase) was
# (§9) Cell culture and DNA transfection - A549, MCF-7 and THP-1 cells were obtained from
# (§10) ATCC (Manassas, VA, USA). The cells were maintained at 5% CO2, 37°C in DMEM
# (§11) supplemented with 10% FBS, 100 units/ml penicillin, 100 μg/ml streptomycin and 0.25
# (§12) μg/ml amphotericin B. The cells were subcultured once weekly. Cells were transfected with
# (§13) peptide/DNA complexes at 1 μg luciferase /well in 24-well plates and with peptide to DNA
# (§14) seeding density was 5 × 10^4 cells per well. The complexes were prepared in Opti-MEM I
# reduced serum medium. After 4 hours of incubation at 37°C, the cells were washed with PBS […]
# luciferase expression was detected using the luciferase assay system according to the […]
# [4] = system: MCF-7 cells; assay: Luciferase reporter gene transfection of MCF-7 cells; assay type: cell-based, human; settings: 1 μg luciferase plasmid/well, 48 h
# Source text: The ability of the peptides to mediate nucleic acid transfer was first assessed by monitoring the delivery of luciferase reporter gene to both A549 and MCF-7 human breast cancer cells (Fig. 2A).
# as §5, §6, §7, §8
# Plasmid DNA (gWIZ™ Luciferase) was
# as §9, §10, §11, §12, §13, §14
# reduced serum medium. After 4 hours of incubation at 37°C, the cells were washed with PBS
# and fresh DMEM supplemented with 10% FBS were added to the cells. After 48 hours, the
# luciferase expression was detected using the luciferase assay system according to the
# manufacturer’s protocol. The cells were transfected with Lipofectamine 2000™ at 2 μl per […]
# [5] = system: A549 cells; assay: Protein content per well as measure of cytotoxicity during transfection of A549 cells; assay type: cell-based, human; settings: luciferase plasmid transfection, compared with LADap(Me2)
# Source text: The pKα of LADap(Me2) is raised by N,N-dimethylation and is likely to be too high to substantially aid endosomal release; dimethylation nevertheless has beneficial effects on the nucleic acid transfer properties of the resulting peptide. […] However, the protein content of the cells, commonly used to calibrate the amount of specific luciferase activity, can be misleading. […] Accordingly, the transfection efficacies of LADap and Lipofectamine 2000™ (4:1) in this experiment are substantially overstated. When luciferase activity is plotted per well (Supp. Fig. 1H), not only is the robust and non-toxic transfection efficacy of LAH4-L1 evident, offering a 13.0 fold improvement over Lipofectamine 2000™, but also the advantages of LADap(Me2) over LADap are clear. The luciferase delivery efficacy of LADap(Me2) however was insufficient for it to be considered for siRNA delivery and further modifications were conceived.
# Luciferase Activity (light units/10 s)
# Luciferase Activity (light units/10 s/mg protein)
# Mean Residue Ellipticity @220 nm (deg cm […]
# Supplementary Figure 1. […] The midpoint of the conformational transition is determined as 6.22 ± 0.16 for LADap4 (D) and 6.80 ± 0.11 for LADap(Me2)4 (E). […] Lipofectamine and LADap4 are toxic to A549 cells but the N,N-dimethylation of Dap (LADap(Me2)4) reduces toxicity and increases gene transfer efficacy despite the high pKα determined in […]
# [6] = Analytical HPLC retention time as indicator of peptide hydrophobicity; assay type: physicochemical; settings: 5-90% water/acetonitrile gradient, Waters Symmetry C8, 5 μm, 7.8 x 100 mm, Abs 215 nm
# Method: (§1) A further six N,N-dimethyl-Dap variant, LADap(Me2)6-A1 was prepared in an attempt to circumvent this by reducing the hydrophobicity by substituting four leucines with alanine.
# Supplementary Figure 5. Analytical HPLC of three Dap rich peptides with differing levels of alkylation. A 5-90% water/acetonitrile gradient system was used using a Waters Symmetry™ C8, 5 μm, 7.8 x 100 mm column. The N-methylation of LADap-6-L1 to LADap(Me)6-L1 reduces the retention time of the peptide marginally however N,N-dimethylation to LADap(Me2)6-L1 causes a substantial shift to longer retention time and is consistent with the insolubility of this latter peptides in aqueous media. A fourth peptide, […]
# alanine residues did improve hydrophobicity but not sufficiently to make the peptide readily soluble in […]
# (§2) (1 picture or pasted object on this page, not shown here)
# [7] = Solubility in aqueous media / 50% trifluoroethanol; assay type: physicochemical
# Method: as §1
# Supplementary Figure 6. far-UV CD spectrum of LADap(Me2)6-L1 in 50% TFE.
# A further six N,N-dimethyl-Dap variant, LADap(Me2)6-A1 was prepared in an attempt to circumvent this by reducing the hydrophobicity by substituting four leucines with alanine. While a small improvement in […]
# spectrum was obtained (Supp. Fig. 6) which indicated the desired α-helix conformation would theoretically be obtainable if it could be delivered to the endosomal membrane.
# as §2
# [8] = system: GAPDH expression in suspension monocyte THP-1 cells; assay: siRNA-mediated silencing of GAPDH expression in suspension monocyte THP-1 cells (Western blot densitometry); assay type: cell-based, human; settings: siRNA at 20 or 40 nM, peptide/siRNA 10:1 w/w, Western blot 72 h, three independent experiments
# Method: as §3
# Cells were transfected with peptide/siRNA complexes containing GAPDH siRNA (+) or negative control siRNA (−) and β-actin served as an internal control for equal protein loading and off target effects. Densitometry results are shown for as an average of three independently repeated experiments (C). […] Vectors were prepared as for siRNA transfection experiments and the peptide to siRNA weight ratio was 10:1 in all cases.
# The cells were transfected with Lipofectamine 2000™ at 2 μl per
# well under the same conditions.
# as §4
# complexes containing 50 or 100 pmol GAPDH siRNA or negative control siRNA/well in 6- […]
# The bound secondary antibodies were detected with ECL™ Western blotting detection […]
substance,measurement,setting,value
"KKALLAHALHLLALLALHLAHALKKA-NH2 [LAH4-L1, reference compound]",pKα at 37 °C (midpoint of the main conformational transition),[1],5.29 ± 0.25
same,reduction of GAPDH expression (silencing),[2]; 50% BALF,29.4 ± 11.8%
same,reduction of GAPDH expression (silencing),[2]; Opti-MEM I,73.5 ± 3.7%
same,fold improvement in luciferase activity per well over Lipofectamine 2000 (4:1),[3],13.0 fold
"KKALLAXALXLLALLALXLAXALKKA-NH2 [LADap4-L1, LAH4-L1 derivative comprising four Dap residues]",pKα at 37 °C (midpoint of the main conformational transition),[1],6.64 ± 0.08
"KKALLAXALXLLALLALXLAXALKKA-NH2 [LADap(Me)4-L1, LAH4-L1 derivative comprising four N-methylated Dap residues]",fold improvement in luciferase expression over LADap4-L1,[4],4.1 fold
same,fold improvement in luciferase expression over LAH4-L1,[4],2.0 fold
same,pKα at 37 °C (midpoint of the main conformational transition),[1],6.62 ± 0.04
KKHLLAHLLHLLALLALHLLHALKHK-NH2 [LAH6-L1],pKα at 37 °C (midpoint of the main conformational transition),[1],4.45 ± 0.25
KKLAHALHLLALLWLHLAHALKKA-NH2 [reference compound],pKα at 37 °C (midpoint of the main conformational transition),[1],5.33
"KKLAXALXLLALLWLXLAXALKKA-NH2 [LADap(Me2), 24-residue cationic amphipathic peptide with four N,N-dimethyl-Dap residues]",pKα at 37 °C (midpoint of the main conformational transition),[1],6.80 ± 0.11
"KKLAXALXLLALLWLXLAXALKKA-NH2 [LADap, 24-residue cationic amphipathic peptide with four Dap residues]",pKα at 37 °C (midpoint of the main conformational transition),[1],6.22 ± 0.16
same,cytotoxicity by protein content of wells,[5],notably more toxic
"KKXLLAXALXALLALLAXLAXALKXK-NH2 [LADap(Me2)6-A1, more hydrophilic six N,N-dimethyl-Dap variant, four leucines substituted with alanine]",HPLC retention time (measure of hydrophobicity),[6],28.37 min
same,solubility in aqueous media,[7],insufficiently soluble
"KKXLLAXLLXLLALLALXLLXALKXK-NH2 [LADap6-L1, 26-residue peptide with six Dap residues]",pKα at 37 °C (midpoint of the main conformational transition),[1],5.67 ± 0.17
"KKXLLAXLLXLLALLALXLLXALKXK-NH2 [LADap(Me2)6-L1, 26-residue peptide with six N,N-dimethyl-Dap residues]",solubility in 50% trifluoroethanol,[7]; 50% trifluoroethanol,soluble in 50% trifluoroethanol
same,solubility in aqueous media,[7],insoluble in aqueous media
"KKXLLAXLLXLLALLALXLLXALKXK-NH2 [LADap(Me)6-L1, 26-residue peptide with six N-methyl Dap residues]",reduction of GAPDH expression (silencing),[2]; Opti-MEM I,88.0 ± 6.8%
same,reduction of GAPDH expression,[8],92.3 ± 3.7%
